In PubChem BioAssay (NCI):
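Briefly, cells in 96-well plates were exposed to five compound concentrations for 48 h, and endpoints were estimated by linear interpolation. TGI is the concentration that stops growth completely.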

Assays:
Experiment in all cases: NCI anticancer screen, dose series, 48 h
RXF 393 renal = tested on: RXF 393 renal
MOLT-4 leukemia = tested on: MOLT-4 leukemia
MDA-MB-435 = tested on: MDA-MB-435
SW-620 colon = tested on: SW-620 colon
DU-145 prostate = tested on: DU-145 prostate
KM12 colon = tested on: KM12 colon
K-562 leukemia = tested on: K-562 leukemia
OVCAR-4 ovarian = tested on: OVCAR-4 ovarian
RPMI-8226 leukemia = tested on: RPMI-8226 leukemia
M14 melanoma = tested on: M14 melanoma
HOP-92 NSCLC = tested on: HOP-92 NSCLC
PC-3 prostate = tested on: PC-3 prostate
SK-MEL-2 melanoma = tested on: SK-MEL-2 melanoma
SNB-19 CNS = tested on: SNB-19 CNS
HL-60(TB) leukemia = tested on: HL-60(TB) leukemia
SNB-75 CNS = tested on: SNB-75 CNS
UACC-257 melanoma = tested on: UACC-257 melanoma
UACC-62 melanoma = tested on: UACC-62 melanoma
TK-10 renal = tested on: TK-10 renal
CCRF-CEM leukemia = tested on: CCRF-CEM leukemia
SF-539 CNS = tested on: SF-539 CNS
SR leukemia = tested on: SR leukemia
ACHN renal = tested on: ACHN renal
HOP-62 NSCLC = tested on: HOP-62 NSCLC
SN12C renal = tested on: SN12C renal
786-0 renal = tested on: 786-0 renal
MALME-3M melanoma = tested on: MALME-3M melanoma
SK-OV-3 ovarian = tested on: SK-OV-3 ovarian
NCI-H226 lung = tested on: NCI-H226 lung
OVCAR-8 ovarian = tested on: OVCAR-8 ovarian
SF-295 CNS = tested on: SF-295 CNS
A549 NSCLC = tested on: A549 NSCLC
U251 CNS = tested on: U251 CNS
HCT-116 colon = tested on: HCT-116 colon
MCF7 breast = tested on: MCF7 breast
SK-MEL-5 melanoma = tested on: SK-MEL-5 melanoma
MDA-MB-231 breast = tested on: MDA-MB-231 breast
HS 578T breast = tested on: HS 578T breast
SK-MEL-28 melanoma = tested on: SK-MEL-28 melanoma
NCI-H522 lung = tested on: NCI-H522 lung
IGROV1 ovarian = tested on: IGROV1 ovarian
NCI/ADR-RES ovarian = tested on: NCI/ADR-RES ovarian
OVCAR-5 ovarian = tested on: OVCAR-5 ovarian
MDA-N = tested on: MDA-N
LOX IMVI melanoma = tested on: LOX IMVI melanoma
NCI-H460 lung = tested on: NCI-H460 lung
BT-549 breast = tested on: BT-549 breast
HCT-15 colon = tested on: HCT-15 colon
HCC-2998 colon = tested on: HCC-2998 colon
HT29 colon = tested on: HT29 colon
EKVX NSCLC = tested on: EKVX NSCLC
T-47D breast = tested on: T-47D breast
UO-31 renal = tested on: UO-31 renal
CAKI-1 renal = tested on: CAKI-1 renal
SF-268 CNS = tested on: SF-268 CNS
COLO 205 colon = tested on: COLO 205 colon

Compound: N#C/C(=C\c1ccc(Cl)cc1)c1nc(-c2cc3ccccc3oc2=O)cs1
- TGI (RXF 393 renal): > 100 µM
- TGI (MOLT-4 leukemia): > 100 µM
- TGI (MDA-MB-435): > 100 µM
- TGI (SW-620 colon): > 100 µM
- TGI (DU-145 prostate): > 100 µM
- TGI (KM12 colon): > 100 µM
- TGI (K-562 leukemia): > 100 µM
- TGI (OVCAR-4 ovarian): > 100 µM
- TGI (RPMI-8226 leukemia): > 100 µM
- TGI (M14 melanoma): > 100 µM
- TGI (HOP-92 NSCLC): 51.3 µM
- TGI (PC-3 prostate): > 100 µM
- TGI (SK-MEL-2 melanoma): > 100 µM
- TGI (SNB-19 CNS): > 100 µM
- TGI (HL-60(TB) leukemia): > 100 µM
- TGI (SNB-75 CNS): > 100 µM
- TGI (UACC-257 melanoma): > 100 µM
- TGI (UACC-62 melanoma): 85.3 µM
- TGI (TK-10 renal): 94.6 µM
- TGI (CCRF-CEM leukemia): > 100 µM
- TGI (SF-539 CNS): > 100 µM
- TGI (SR leukemia): > 100 µM
- TGI (ACHN renal): > 100 µM
- TGI (HOP-62 NSCLC): 58.2 µM
- TGI (SN12C renal): > 100 µM
- TGI (786-0 renal): > 100 µM
- TGI (MALME-3M melanoma): > 100 µM
- TGI (SK-OV-3 ovarian): > 100 µM
- TGI (NCI-H226 lung): > 100 µM
- TGI (OVCAR-8 ovarian): > 100 µM
- TGI (SF-295 CNS): > 100 µM
- TGI (A549 NSCLC): > 100 µM
- TGI (U251 CNS): 93.3 µM
- TGI (HCT-116 colon): > 100 µM
- TGI (MCF7 breast): > 100 µM
- TGI (SK-MEL-5 melanoma): > 100 µM
- TGI (MDA-MB-231 breast): 47.8 µM
- TGI (HS 578T breast): 37.7 µM
- TGI (SK-MEL-28 melanoma): > 100 µM
- TGI (NCI-H522 lung): 50.1 µM
- TGI (IGROV1 ovarian): > 100 µM
- TGI (NCI/ADR-RES ovarian): > 100 µM
- TGI (OVCAR-5 ovarian): > 100 µM
- TGI (MDA-N): > 100 µM
- TGI (LOX IMVI melanoma): > 100 µM
- TGI (NCI-H460 lung): > 100 µM
- TGI (BT-549 breast): 31.8 µM
- TGI (HCT-15 colon): > 100 µM
- TGI (HCC-2998 colon): > 100 µM
- TGI (HT29 colon): > 100 µM
- TGI (EKVX NSCLC): > 100 µM
- TGI (T-47D breast): > 100 µM
- TGI (UO-31 renal): > 100 µM
- TGI (CAKI-1 renal): > 100 µM
- TGI (SF-268 CNS): > 100 µM
- TGI (COLO 205 colon): > 100 µM
